By inhibition is commonly meant the drop in the measured response relative to a control, in per cent.

In patent US8680159B2, “Bradykinin 1 receptor modulating compounds” (Gruenenthal GmbH, priority 2010, dated 2014) one finds inhibition data, which are given here for 17 compounds.

The target of experiment [1] is T1, human B1R receptor (CHO K1 cells stably transfected with the human B1R gene) (Homo sapiens, UniProt P46663).
T1 construct: expressed in transfected cells; host or cells: CHO K1 cells (Chinese hamster ovary), stably transfected
T1 sequence (P46663 1-353): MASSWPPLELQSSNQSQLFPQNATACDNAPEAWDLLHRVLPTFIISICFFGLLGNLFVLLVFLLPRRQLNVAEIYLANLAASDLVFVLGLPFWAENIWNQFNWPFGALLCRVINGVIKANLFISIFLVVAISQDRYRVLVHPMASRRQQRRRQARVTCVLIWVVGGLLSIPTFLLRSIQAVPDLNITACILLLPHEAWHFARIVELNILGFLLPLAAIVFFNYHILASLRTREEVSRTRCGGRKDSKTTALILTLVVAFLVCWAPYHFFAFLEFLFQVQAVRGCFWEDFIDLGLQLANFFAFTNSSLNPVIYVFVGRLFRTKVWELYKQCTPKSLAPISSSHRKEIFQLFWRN
Kind of experiment: Functional study on the bradykinin receptor 1 (B1R), Ca2+ fluorescence (Fluo-4) FLIPR/Novostar assay, hB1R cells. The format is cell-based. To be noted: CHO-K1, read-out: % inhibition (human B1R) at 10 μM. Summed up: (§1)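 Stably transfected CHO K1 cells carrying human or rat B1R were Fluo-4 loaded and Ca2+ fluorescence read by FLIPR or Novostar. Compounds were added first at 10 μM for % activation, then the EC80 agonist was applied after 6-20 min (human: Lys-Des-Arg9-bradykinin; rat: Des-Arg9-bradykinin). % inhibition is relative to maximum achievable inhibition, and IC50 comes from concentration series.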

Experiment [2] has as its target T2, B1R receptor of the rat (CHO K1 cells stably transfected with the B1R gene of the rat) (Rattus norvegicus, UniProt P97583).
T2 construct: expressed in transfected cells; host or cells: CHO K1 cells (Chinese hamster ovary), stably transfected
T2 sequence (P97583 1-337): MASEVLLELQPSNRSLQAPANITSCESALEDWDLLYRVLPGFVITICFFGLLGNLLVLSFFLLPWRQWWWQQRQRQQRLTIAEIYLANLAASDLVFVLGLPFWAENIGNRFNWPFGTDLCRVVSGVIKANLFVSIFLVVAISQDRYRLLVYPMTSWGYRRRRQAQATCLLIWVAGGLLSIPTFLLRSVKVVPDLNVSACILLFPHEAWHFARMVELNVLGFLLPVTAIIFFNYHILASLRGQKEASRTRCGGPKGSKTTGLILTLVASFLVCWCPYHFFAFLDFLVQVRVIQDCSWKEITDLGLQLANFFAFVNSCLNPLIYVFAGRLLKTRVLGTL
As to the kind of experiment: Functional study on the bradykinin receptor 1 (B1R), Ca2+ fluorescence (Fluo-4) FLIPR/Novostar assay, rB1R cells. Conditions: CHO-K1, 10 μM, read-out: % inhibition (rat B1R) at 10 μM. Format: cell-based. Summed up:
as §1

As to `CN(C(=O)c1ccc2c(c1)[C@H](NC(=O)c1ccccc1Cl)CC2)C1CCN(Cc2ccnc(N3CCCC3)c2)CC1` [Example H-48, (3R)-3-[(2-Chloro-benzoyl)amino]-N-methyl-N-[1-[(2-pyrrolidin-1-yl-pyridin-4-yl)-methyl]-piperidin-4-yl]-2,3-dihydro-1H-indene-5-carboxylic acid amide], the inhibition at 10 µM in experiment [1] came to 11%; in experiment [2] it was 75%.

Consider `Cc1cc(N2CCC(CN(C)C(=O)c3ccc4c(c3)[C@H](NC(=O)c3ccccc3Cl)CC4)CC2)ccn1` [Example H-49, (3R)-3-[(2-Chloro-benzoyl)amino]-N-methyl-N-[[1-(2-methyl-pyridin-4-yl)-piperidin-4-yl]-methyl]-2,3-dihydro-1H-indene-5-carboxylic acid amide], for which the inhibition at 10 µM turned out to be 85% in experiment [1] and 101% in experiment [2].

With `COc1ccc(N2CCC(N(C)C(=O)c3ccc4c(c3)[C@H](NC(=O)c3ccccc3Cl)CC4)CC2)cc1` [Example H-50, (3R)-3-[(2-Chloro-benzoyl)amino]-N-[1-(4-methoxyphenyl)-piperidin-4-yl]-N-methyl-2,3-dihydro-1H-indene-5-carboxylic acid amide], the inhibition at 10 µM in experiment [1] was determined as 23%; in experiment [2], 86%.

As for `CN(C(=O)c1ccc2c(c1)[C@H](NC(=O)C1(c3ccccc3Cl)CC1)CC2)C1CCN(c2ccncc2)CC1` [Example H-51, (3R)-3-[[1-(2-Chlorophenyl)-cyclopropanecarbonyl]amino]-N-methyl-N-(1-pyridin-4-yl-piperidin-4-yl)-2,3-dihydro-1H-indene-5-carboxylic acid amide], the inhibition at 10 µM was found to be 99% in experiment [1] and 105% in experiment [2].

On to `Cc1cc(N2CCC(CN(C)C(=O)c3ccc4c(c3)CC[C@H]4N3Cc4cccc(Cl)c4C3=O)CC2)ccn1` [Example H-52, (1R)-1-(4-Chloro-3-oxo-1,2-dihydro-isoindol-2-yl)-N-methyl-N-[[1-(2-methyl-pyridin-4-yl)-piperidin-4-yl]-methyl]-2,3-dihydro-1H-indene-5-carboxylic acid amide], for which the inhibition at 10 µM in experiment [1] amounted to 98%; in experiment [2], 73%.

As for `CN(C(=O)c1ccc2c(c1)CC[C@H]2N1Cc2cccc(Cl)c2C1=O)C1CCN(Cc2ccnc(N3CCCC3)c2)CC1` [Example H-53, (1R)-1-(4-Chloro-3-oxo-1,2-dihydro-isoindol-2-yl)-N-methyl-N-[1-[(2-pyrrolidin-1-yl-pyridin-4-yl)-methyl]-piperidin-4-yl]-2,3-dihydro-1H-indene-5-carboxylic acid amide], the figures for the inhibition at 10 µM in experiment [1] and in experiment [2] were 56% and 50%, respectively.

On to `CN(C(=O)c1ccc2c(c1)[C@H](NC(=O)c1ccccc1Cl)CC2)C1CCN(c2ccc(Cl)cc2)CC1` [Example H-54, (3R)-3-[(2-Chloro-benzoyl)amino]-N-[1-(4-chlorophenyl)-piperidin-4-yl]-N-methyl-2,3-dihydro-1H-indene-5-carboxylic acid amide], for which the inhibition at 10 µM in experiment [1] is 29%; in experiment [2] it was 93%.

For the compound `Cc1cc(N2CCC(N(C)C(=O)c3ccc4c(c3)[C@H](NC(=O)c3ccccc3Cl)CC4)CC2)ccn1` [Example H-55, (3R)-3-[(2-Chloro-benzoyl)amino]-N-methyl-N-[1-(2-methyl-pyridin-4-yl)-piperidin-4-yl]-2,3-dihydro-1H-indene-5-carboxylic acid amide], the inhibition at 10 µM came out at 99% in experiment [1] and 104% in experiment [2].

For `Cc1cc(N2CCC(CCNC(=O)c3ccc4c(c3)[C@H](NC(=O)c3ccccc3Cl)CC4)CC2)ccn1` [Example H-56, (3R)-3-[(2-Chloro-benzoyl)amino]-N-[2-[1-(2-methyl-pyridin-4-yl)-piperidin-4-yl]-ethyl]-2,3-dihydro-1H-indene-5-carboxylic acid amide], the results for the inhibition at 10 µM in experiment [1] and in experiment [2] were 99% and 102%, respectively.

Take `CN(C(=O)c1cc2c(cc1F)[C@H](NC(=O)c1ccccc1Cl)CC2)C1CCN(c2ccncc2)CC1` [Example H-57, (1R)-1-[(2-Chloro-benzoyl)amino]-6-fluoro-N-methyl-N-(1-pyridin-4-yl-piperidin-4-yl)-2,3-dihydro-1H-indene-5-carboxylic acid amide]: the inhibition at 10 µM in experiment [1] and in experiment [2] was 100% each time.

`CN(C(=O)c1ccc2c(c1)[C@H](NC(=O)C(C)(C)c1ccccc1Cl)CC2)C1CCN(c2ccncc2)CC1` [Example H-58, (3R)-3-[[2-(2-Chlorophenyl)-2-methyl-propanoyl]amino]-N-methyl-N-(1-pyridin-4-yl-piperidin-4-yl)-2,3-dihydro-1H-indene-5-carboxylic acid amide]: the values for the inhibition at 10 µM in experiment [1] and in experiment [2] were 100% and 98%, respectively.

Regarding `Cc1cc(N2CCC(N(C)C(=O)c3ccc4c(c3)[C@H](NC(=O)c3ccccc3Cl)CC4)CC2)nc(C)n1` [Example H-59, (3R)-3-[(2-Chloro-benzoyl)amino]-N-[1-(2,6-dimethyl-pyrimidin-4-yl)-piperidin-4-yl]-N-methyl-2,3-dihydro-1H-indene-5-carboxylic acid amide], the inhibition at 10 µM in experiment [1] is 99%; in experiment [2] it was 103%.

Regarding `CN(C(=O)c1ccc2c(c1)[C@H](NC(=O)c1ccccc1Cl)CC2)C1CCN(c2ccncc2)CC1(C)C` (stereo partly drawn) [Example H-60, (3R)-3-[(2-Chloro-benzoyl)amino]-N-(3,3-dimethyl-1-pyridin-4-yl-piperidin-4-yl)-N-methyl-2,3-dihydro-1H-indene-5-carboxylic acid amide], the inhibition at 10 µM came to 99% in experiment [1] and 103% in experiment [2].

As to `CN(C(=O)c1ccc2c(c1)[C@H](NC(=O)c1ccccc1Cl)CC2)C1CCC(c2ccncc2)CC1` (stereo partly drawn) [Example H-61, (3R)-3-[(2-Chloro-benzoyl)amino]-N-methyl-N-(4-pyridin-4-yl-cyclohexyl)-2,3-dihydro-1H-indene-5-carboxylic acid amide], the inhibition at 10 µM in experiment [1] turned out to be 32%; in experiment [2], 77%.

In the case of `Cc1cc(C(=O)N[C@@H]2CCc3ccc(C(=O)N(C)C4CCN(c5ccncc5)CC4)cc32)no1` [Example H-62, 5-Methyl-N-[(1R)-6-[methyl-(1-pyridin-4-yl-piperidin-4-yl)-carbamoyl]-2,3-clihydro-1H-inden-1-yl]-isoxazole-3-carboxylic acid amide], the inhibition at 10 µM in experiment [1] worked out at 100%; in experiment [2], 99%.

For `CN(C(=O)c1ccc2c(c1)[C@H](NC(=O)CC(F)(F)F)CC2)C1CCN(c2ccncc2)CC1` [Example H-63, (3R)-N-Methyl-N-(1-pyridin-4-yl-piperidin-4-yl)-3-(3,3,3-trifluoro-propanoylamino)-2,3-dihydro-1H-indene-5-carboxylic acid amide], the inhibition at 10 µM in experiment [1] stood at 100%; in experiment [2], 96%.

On to `CN(CC1CCN(c2ccncc2)CC1)C(=O)c1ccc2c(c1)[C@H](NC(=O)c1ccccc1Cl)CC2` [Example H-64, (3R)-3-[(2-Chloro-benzoyl)amino]-N-methyl-N-[(1-pyridin-4-yl-piperidin-4-yl)-methyl]-2,3-dihydro-1H-indene-5-carboxylic acid amide], for which the inhibition at 10 µM in experiment [1] came to 96%; in experiment [2] it was 97%.
